Results from patent US9963452B2, “Methods, compounds, and compositions for inhibition of ROS” (AUGUSTA PHARMACEUTICALS INC., priority 2013, dated 2018).

Legend:
Assay type in all cases: cell-based
[1] = tested on: U118 glioblastoma cell line; experiment: In-vitro cell survival assay (Alamar blue), U118; conditions: U118, one day after compound addition
Method: (§1) Five tumor-derived cell lines were treated with the ROS inhibitor compounds and cell survival was monitored to determine the cancer prohibition effects of the compounds. The cell lines included HeLa, a cervical cancer cell line, and four glioblastoma cell lines U138, U87, LN18, and U118. The basic protocol for the in-vitro cell survival assay is the same for all five cell lines. In particular, the cells were seeded in 96-well plates at 2-5×10^3 cells/well (cell line dependent) in culture medium. The cells were grown for 2 days before the compounds were dissolved in DMSO and added to final concentrations of 100 uM, 10 uM, or 1 uM (DMSO final concentration 0.5%). The cell culture was then assayed one day after the addition of the compounds. The assay used Alamar blue as a redox-sensitive dye that interrogates mitochondrial fitness of cells, and these assays provided a readout for cell proliferation and viability. The raw values were normalized to an average of several vehicle control wells and are presented as percent decrease in proliferation/viability, which is converted to half maximal effective concentration (EC50) values.

[2] = tested on: HeLa cervical cancer cell line; experiment: In-vitro cell survival assay (Alamar blue), HeLa; conditions: one day after compound addition
Method: as §1

[3] = tested on: U138 glioblastoma cell line; experiment: In-vitro cell survival assay (Alamar blue), U138; conditions: U138, one day after compound addition
Method: as §1

[4] = tested on: LN18 glioblastoma cell line; experiment: In-vitro cell survival assay (Alamar blue), LN18; conditions: LN18, one day after compound addition
Method: as §1

[5] = tested on: U87 glioblastoma cell line; experiment: In-vitro cell survival assay (Alamar blue), U87; conditions: U87, one day after compound addition
Method: as §1

O=C(NCC1CCCCC1)c1cccc(Nc2nccc(Nc3ccc4ncsc4c3)n2)c1 [drawing 407]
EC50 ([1]; 24 h): > 100 µM | EC50 ([2]; Homo sapiens, 24 h): > 100 µM | EC50 ([3]; 24 h): > 100 µM | EC50 ([4]; Homo sapiens, LN-18, 24 h): 87 µM | EC50 ([5]; 24 h): 33 µM

O=C(NCCc1ccc(F)cc1)c1cccc(Nc2nccc(Nc3ccc4ncsc4c3)n2)c1 [drawing 372]
EC50 ([1]; 24 h): 9 µM | EC50 ([2]; Homo sapiens, 24 h): 5 µM | EC50 ([3]; 24 h): 8 µM | EC50 ([4]; Homo sapiens, LN-18, 24 h): 6 µM | EC50 ([5]; 24 h): 10 µM

O=C(NNc1nc2ccccc2nc1Cc1ccccc1)c1cccc(Cl)c1 [drawing 366]
EC50 ([1]; 24 h): > 100 µM | EC50 ([2]; Homo sapiens, 24 h): > 100 µM | EC50 ([3]; 24 h): > 100 µM | EC50 ([4]; Homo sapiens, LN-18, 24 h): 22 µM | EC50 ([5]; 24 h): 25 µM

CCN(CC)CCNC(=O)c1cccc(Nc2nccc(Nc3ccc4ncsc4c3)n2)c1 [drawing 373]
EC50 ([1]; 24 h): 35 µM | EC50 ([2]; Homo sapiens, 24 h): 15 µM | EC50 ([3]; 24 h): 45 µM | EC50 ([4]; Homo sapiens, LN-18, 24 h): 15 µM | EC50 ([5]; 24 h): 37 µM

Cc1cccc(Nc2nccc(Nc3cccc(C(=O)NCCCN4CCOCC4)c3)n2)c1 [drawing 416]
EC50 ([1]; 24 h): > 100 µM | EC50 ([2]; Homo sapiens, 24 h): 34 µM | EC50 ([3]; 24 h): 76 µM | EC50 ([4]; Homo sapiens, LN-18, 24 h): 40 µM | EC50 ([5]; 24 h): 99 µM

Nc1nc(N)n(-c2ccccc2)/c(=N/c2ccccc2)n1 [drawing 395]
EC50 ([1]; 24 h): > 100 µM | EC50 ([2]; Homo sapiens, 24 h): > 100 µM | EC50 ([3]; 24 h): > 100 µM | EC50 ([4]; Homo sapiens, LN-18, 24 h): > 100 µM | EC50 ([5]; 24 h): 33 µM

COc1ccc(Nc2nc(N(C)CCO)nc3c2cnn3-c2ccccc2)cc1 [drawing 387]
EC50 ([1]; 24 h): 8 µM | EC50 ([2]; Homo sapiens, 24 h): 7 µM | EC50 ([3]; 24 h): 9 µM | EC50 ([4]; Homo sapiens, LN-18, 24 h): 6 µM | EC50 ([5]; 24 h): 11 µM

Cc1[nH]c2nc(NCc3cccc([N+](=O)[O-])c3)nn2c(=O)c1Cc1ccccc1 [drawing 359]
EC50 ([1]; 24 h): > 100 µM | EC50 ([2]; Homo sapiens, 24 h): > 100 µM | EC50 ([3]; 24 h): > 100 µM | EC50 ([4]; Homo sapiens, LN-18, 24 h): > 100 µM | EC50 ([5]; 24 h): 45 µM

CSc1sc(-c2n[nH]cc2Br)c2c1C(=O)CC(C)(C)C2 [drawing 396]
EC50 [1]: > 100 µM | EC50 [2]: > 100 µM | EC50 [3]: > 100 µM | EC50 [4]: 94 µM | EC50 [5]: 18 µM

CCN(CCO)c1nc(Nc2ccc(F)cc2)c2cnn(-c3ccccc3)c2n1 [drawing 386]
EC50 ([1]; 24 h): 58 µM | EC50 ([2]; Homo sapiens, 24 h): 54 µM | EC50 ([3]; 24 h): 57 µM | EC50 ([4]; Homo sapiens, LN-18, 24 h): 7 µM | EC50 ([5]; 24 h): 10 µM

O=C(c1cccc(Nc2nccc(Nc3ccc4ncsc4c3)n2)c1)N1CCCCCC1 [drawing 421]
EC50 ([1]; 24 h): 81 µM | EC50 ([2]; Homo sapiens, 24 h): 9 µM | EC50 ([3]; 24 h): > 100 µM | EC50 ([4]; Homo sapiens, LN-18, 24 h): 9 µM | EC50 ([5]; 24 h): 25 µM

Cc1ccc(-n2cc(-c3cccs3)nc2SCc2n[nH]c(=S)n2Cc2ccccc2)cc1 [drawing 393]
EC50 [1]: > 100 µM | EC50 [2]: > 100 µM | EC50 [3]: > 100 µM | EC50 [4]: > 100 µM | EC50 [5]: 24 µM

Nc1nc(Nc2ccc(C(=O)NCCc3ccncc3)cc2)cc(Nc2ccc3ncsc3c2)n1 [drawing 417]
EC50 ([1]; 24 h): > 100 µM | EC50 ([2]; Homo sapiens, 24 h): 22 µM | EC50 ([3]; 24 h): 33 µM | EC50 ([4]; Homo sapiens, LN-18, 24 h): > 100 µM | EC50 ([5]; 24 h): 17 µM

Cc1ccc(Cn2c(NCc3nc4ccccc4n3C)nc3ccccc32)cc1 [drawing 355]
EC50 ([1]; 24 h): > 100 µM | EC50 ([2]; Homo sapiens, 24 h): > 100 µM | EC50 ([3]; 24 h): > 100 µM | EC50 ([4]; Homo sapiens, LN-18, 24 h): > 100 µM | EC50 ([5]; 24 h): > 100 µM

O=C(NC[C@@H]1CCCO1)c1cccc(Nc2nccc(Nc3ccc4ncsc4c3)n2)c1
EC50 ([1]; 24 h): > 100 µM | EC50 ([2]; Homo sapiens, 24 h): 11 µM | EC50 ([3]; 24 h): > 100 µM | EC50 ([4]; Homo sapiens, LN-18, 24 h): 15 µM | EC50 ([5]; 24 h): 16 µM

Cn1c(=O)c2c(nc3n(CCO)c(-c4ccccc4)cn23)n(C)c1=O [drawing 402]
EC50 ([1]; 24 h): > 100 µM | EC50 ([2]; Homo sapiens, 24 h): > 100 µM | EC50 ([3]; 24 h): > 100 µM | EC50 ([4]; Homo sapiens, LN-18, 24 h): > 100 µM | EC50 ([5]; 24 h): > 100 µM

Cc1cccc(Nc2nccc(Nc3cccc(C(=O)NC4CCN(C)CC4)c3)n2)c1 [drawing 422]
EC50 ([1]; 24 h): 60 µM | EC50 ([2]; Homo sapiens, 24 h): 25 µM | EC50 ([3]; 24 h): 20 µM | EC50 ([4]; Homo sapiens, LN-18, 24 h): 5 µM | EC50 ([5]; 24 h): 18 µM

O=C(NCC(c1cccs1)S(=O)(=O)c1ccc(F)cc1)c1ccccc1 (centres unmarked) [drawing 434]
EC50 ([1]; 24 h): 54 µM | EC50 ([2]; Homo sapiens, 24 h): 77 µM | EC50 ([3]; 24 h): > 100 µM | EC50 ([4]; Homo sapiens, LN-18, 24 h): 21 µM | EC50 ([5]; 24 h): 30 µM

CC(=O)N[C@@H]1CCN(C(=O)c2cccc(Nc3cc(N(C)c4cccc(C)c4)ncn3)c2)C1 [drawing 378]
EC50 ([1]; 24 h): > 100 µM | EC50 ([2]; Homo sapiens, 24 h): > 100 µM | EC50 ([3]; 24 h): > 100 µM | EC50 ([4]; Homo sapiens, LN-18, 24 h): > 100 µM | EC50 ([5]; 24 h): > 100 µM
